Values quoted from earlier work in paper PMC9239115 (Amino acids, 2017).

Columns and labels:
C6 glioma cell lines = details: up to 200 μM; ref Pes 2013
[1] = degraded in the circulation by ACE; ref Rodgers et al. 2006

Row | Half-life in the circulation [1] [min] | SMILES | Toxicity on C6 glioma cell lines (C6 glioma cell lines)
1 | – | NC[C@H]1C[C@@H](C(=O)O)C1 [ACCA, cis-3-(Aminomethyl)cyclobutanecarboxylic acid] | did not show any toxicity
2 | 29 | CC[C@H](C)[C@H](NC(=O)[C@H](Cc1ccc(O)cc1)NC(=O)[C@@H](NC(=O)[C@H](CCCNC(=N)N)NC(=O)[C@@H](N)CC(=O)O)C(C)C)C(=O)N[C@@H](Cc1c[nH]cn1)C(=O)N1CCC[C@H]1C(=O)O [Ang-(1–7), Angiotensin-(1–7)] | –
